Test results taken from patent EP3322687B1, “2-BENZYL-INDANONE COMPOUNDS AS ANTICANCER AGENT AND A PROCESS FOR PREPARATION THEREOF” (Council of Scientific and Industrial Research, priority 2015, dated 2017).
Several values for one entry are separate records, joined by “and”; a condition that tells them apart may be missing. Identical values can stand only once. Like-named read-outs stand apart in the source and are kept apart here.

Legend:
tubulin protein = format: biochemical; conditions: read-out: Tubulin polymerisation inhibition IC50
Protocol: The tubulin polymerization experiment was performed using 'assay kit'(Cytoskeleton USA) following manufacturer's protocol based on the procedure described by of Shelanski et al, (1973) and Lee et al. (1977). Briefly, tubulin protein (3mg/mL) in tubulin polymerization buffer (80 mM PIPES, pH 6.9, 2 mM MgCl2, 0.5 mM EGTA, 1 mM GTP and 15% glycerol) was placed in prewarmed 96-well microtiter plates at 37° C in the presence of test compounds with variable concentrations. All samples were mixed well and polymerization was monitored kinetically at 340 nm every min for 1h using a Spectramax plate reader. The IC50 value was determined from dose-dependent analysis and is defined as the concentration that inhibits the rate of polymerization by 50%. Podophyllotoxin was used as standard tubulin polymerisation inhibitor as positive control.

[1] = system: Ehrlich Ascites Carcinoma (EAC); format: in vivo, Swiss mice; conditions: for % Tumor cell growth: 20 mg/kg i/p day 1-9, Day 12, control = 100; for Mortality: 20 mg/kg i/p day 1-9, Day 12, dead/total animals
Protocol: Ehrlich ascites carcinoma (EAC) cells were collected from the peritoneal cavity of the Swiss mice harbouring 8-10 days old ascitic tumor. 1x10^7 EAC cells were injected intraperitoneally in Swiss mice selected for the experiment on day 0. The next day, animals were randomized and divided into different groups. The treatment groups contained 7 animals each and control group contained 10 animals. The treatment group was treated with 20 mg/kg of Compound 2 intra-peritoneally from day 1-9. One more of the treatment group received 5-fluorouracil (20 mg/kg, i.p) and it served as positive control. The tumor bearing control group was similarly administered normal saline (0.2 ml, i.p.). On day 12, animals were sacrificed and ascitic fluid was collected from peritoneal cavity of each mouse for the evaluation of tumor growth. Percent tumor growth inhibition was calculated based on the total number of tumor cells present in the peritoneal cavity as on day 12 of the experiment using the following formula. Percent tumor growth inhibition = (Av.no.of cells in control group−Av.no.of cells in treated group)/(Av.no.of cells in control group) × 100 [formula]

Ehrlich Tumor (solid) = format: in vivo, Swiss mice
Protocol: Ehrlich ascites carcinoma (EAC) cells were collected from the peritoneal cavity of the Swiss mice harbouring 8-10 days old ascitic tumor. 1x10^7 EAC cells were injected intramuscularly in right thigh of Swiss male mice selected for the experiment on day 0. The next day, animals were randomized and divided into different groups. Two treatment groups contained 7 animals each and one control group contained 10 animals. The first treatment group was given compound 2 (20 mg/kg i/p) from day 1-9. The second treatment group was treated with 5-fluorouracil (22 mg/kg, i.p) from day 1-9 and it served as positive control. The control group was similarly administered normal saline (0.2 ml, i.p.) from day 1-9. On day 9 & 13, tumor bearing thigh of each animal was shaved and longest and shortest diameters of the tumor were measured with the help of vernier caliper. Tumor weight of each animal was calculated using the following formula. Tumor weight (mg) = (Length(mm) × ([width(mm)])^2)/(2) [formula]
The percent tumor growth inhibition was calculated on day 13 by comparing the average values of treated groups with that of control group. Tumor growth in saline treated control animals was taken to be 100%. Table 6. In-vivo anticancer activity of 2 against Ehrlich ascites carcinoma (solid)

MCF-7 (Breast cancer) = assay: Sulforhodamine B cytotoxicity assay; format: cell-based; conditions: Homo sapiens, MCF7; for IC50: SRB, 48 hours incubation, read-out: Human cancer cell lines IC50 MCF-7 (Breast cancer)
Protocol: (§1) The benzyl compounds were evaluated by Sulforhodamine B Assay as per reported method [Skehan etal., J. Natl. Cancer Inst.1990, 82, 1107]. The human cancer cell lines procured from National Cancer Institute, Frederick, U. S. A. were used in present study. Cells were grown in tissue culture flasks in complete growth medium (RPMI-1640 medium with 2 mM glutamine, pH 7.4 supplemented with 10% fetal bovine serum, 100 µg/ml streptomycin and 100 units/ml penicillin) in a carbon dioxide incubator (37°C, 5% CO2, 90% RH). The cells at subconfluent stage were harvested from the flask by treatment with trypsin (0.05% in PBS (pH 7.4) containing 0.02% EDTA). Cells with viability of more than 98%, as determined by trypan blue exclusion, were used for determination of cytotoxicity. The cell suspension required concentration of cells was prepared in complete growth medium. Stock solution of 2x10^-2 M of compounds were prepared in DMSO and further dilution was carried out complete growth medium containing 50µg/ml of gentamycin to obtained working test solution of required concentration. In vitro cytotoxicity against various human cancer cell lines was determined using 96-well cell culture plates. The 100µl of cell suspension was added to each well of the 96-well cell culture plates. The cells were allowed to grow in CO2 incubator (37°C, 5% CO2, 90% RH) for 24 hours. The test materials in complete growth medium (100 µl) were added after 24 hours incubation to the wells containing cell suspension. The plates were further incubated for 48 hours (37°C in an atmosphere of 5% CO2 and 90% relative humidity) in a carbon dioxide incubator after addition of test material and then the cell growth was stopped by gently layering trichloroacetic acid (50% TCA, 50 µl) on top of the medium in all the wells. The plates were incubated at 4°C for one hour to fix the cells attached to the bottom of the wells. The liquid of all the wells was gently pipetted out and discarded. The plates were washed five times with distilled water to remove TCA, growth medium low molecular weight metabolites, serum proteins etc. and air - dried. Cell growth was measured by staining with sulforhodamine B dye. The adsorbed dye was dissolved in Tris-HCl Buffer (100 µl/well, 0.01M, pH 10.4) and plates were gently stirred for 10 minutes on a mechanical stirrer. The optical density (OD) was recorded on ELISA reader at 540nm. Paclitaxel (Taxol), and 5-Fluorouracil were used as positive controls (Standard drugs).

THP-1 (Leukemia) = assay: Sulforhodamine B cytotoxicity assay; format: cell-based; conditions: Homo sapiens, THP-1; for IC50: SRB, 48 hours incubation, read-out: Human cancer cell lines IC50 THP-1 (Leukemia)
Protocol: as §1

HCT-116 (Colon) = assay: Sulforhodamine B cytotoxicity assay; format: cell-based; conditions: Homo sapiens, HCT-116; for IC50: SRB, 48 hours incubation, read-out: Human cancer cell lines IC50 HCT-116 (Colon)
Protocol: as §1

A549 (Lung) = assay: Sulforhodamine B cytotoxicity assay; format: cell-based; conditions: Homo sapiens, A549; for IC50: SRB, 48 hours incubation, read-out: Human cancer cell lines IC50 A549 (Lung)
Protocol: as §1

T-47D (Breast cancer) = assay: Sulforhodamine B cytotoxicity assay; format: cell-based; conditions: Homo sapiens, T47D; for IC50: SRB, 48 hours incubation, read-out: Human cancer cell lines IC50 T-47D (Breast cancer)
Protocol: as §1

Hela (Cervix) = assay: Sulforhodamine B cytotoxicity assay; format: cell-based; conditions: Homo sapiens, Concentration 20 µM
Protocol: as §1

For `COc1cc(C2C(=Cc3ccc4c(c3)OCO4)C(=O)c3cc(OC)c(OC)c(OC)c32)cc(OC)c1OC` (centres unmarked) [Compound 12, 2-benzo[1,3]dioxo-5-ylmethylene-4,5,6-trimethoxy-3-(3,4,5-trimethoxyphenyl)-indan-1-one], the IC50 (tubulin protein; tubulin 3mg/mL, 37° C, 340 nm, 1h) was 630 nM, the “%Tumor Growth Inhibition” value ([1]; 20 mg/kg i/p day 1-9, Day 12) was 45.5% and 45.48% and the “Av, Volume of ascitic fluid” value ([1]; 20 mg/kg i/p day 1-9, Day 12) was 6.11 mL. The “Av. Weight of ascitic fluid” value ([1]; 20 mg/kg i/p day 1-9, Day 12) was 5.88 g, the “% Tumor cell growth” value [1] was 54.52% and the Mortality [1] was 0/7. The “Body weight Day 1” value ([1]; 20 mg/kg i/p day 1-9, EAC-bearing female Swiss mice, Day 1) was 21.42 g, the “Body weight Day 5” value ([1]; 20 mg/kg i/p day 1-9, EAC-bearing female Swiss mice, Day 5) was 22.85 g and the “Body weight Day 9” value ([1]; 20 mg/kg i/p day 1-9, EAC-bearing female Swiss mice, Day 9) was 22.42 g. For the same molecule, the “Body weight Day 12” value ([1]; 20 mg/kg i/p day 1-9, EAC-bearing female Swiss mice, Day 12) was 23.16 g, the “Day 13 Av. Tumor weights” value (Ehrlich Tumor (solid); 20 mg/kg i/p day 1-9, Day 13) was 1319.64 ± 56.46 mg and the “%Tumor Growth Inhibition” value (Ehrlich Tumor (solid); 20 mg/kg i/p day 1-9, day 13) was 35.9% and 35.91%. The Mortality (Ehrlich Tumor (solid); 20 mg/kg i/p day 1-9, dead/total animals) was 0/7, the “Day 13 Av. Body weights” value (Ehrlich Tumor (solid); 20 mg/kg i/p day 1-9, male Swiss mice, Day 13) was 23.71 g and the “Av. Body weights (g) of animals on days 1” value (Ehrlich Tumor (solid); 20 mg/kg i/p day 1-9, male Swiss mice, day 1) was 21.42 g. For the same molecule, the IC50 (MCF-7 (Breast cancer)) was 0.01 µM, the IC50 (THP-1 (Leukemia)) was 4.9 µM and the IC50 (HCT-116 (Colon)) was 0.1 µM. The IC50 (A549 (Lung)) was 11 µM.
`COc1ccc(CC2C(=O)c3cc(OC)c(OC)c(OC)c3C2c2cc(OC)c(OC)c(OC)c2)c(OC)c1` (centres unmarked) [Compound 5, 2-(2",4"-dimethoxybenzyl)-3-(3',4',5'-trimethoxyphenyl)-4,5,6-trimethoxy-indan-1-one] gave an IC50 (MCF-7 (Breast cancer)) of 12 µM, an IC50 (THP-1 (Leukemia)) of 1 µM and an IC50 (HCT-116 (Colon)) of 4 µM. For the same molecule, the IC50 (A549 (Lung)) was 1 µM and the IC50 (T-47D (Breast cancer)) was 12 µM.
With `CC(=O)O[C@H]1C(=O)[C@@]2(C)[C@H]([C@H](OC(=O)c3ccccc3)[C@]3(O)C[C@H](OC(=O)[C@H](O)[C@@H](NC(=O)c4ccccc4)c4ccccc4)C(C)=C1C3(C)C)[C@]1(OC(C)=O)CO[C@@H]1C[C@@H]2O` [Paclitaxel, reference compound] the inhibition at 1 µM (MCF-7 (Breast cancer); Concentration 1 µM) was 77%, the inhibition at 1 µM (THP-1 (Leukemia); Concentration 1 µM) was 60% and the inhibition at 1 µM (HCT-116 (Colon); Concentration 1 µM) was 45%. For the same molecule, the inhibition at 1 µM (A549 (Lung); Concentration 1 µM) was 88% and the inhibition at 1 µM (T-47D (Breast cancer); Concentration 1 µM) was 78%.
With `O=c1[nH]cc(F)c(=O)[nH]1` [5-Fluorouracil] the “%Tumor Growth Inhibition” value ([1]; 20 mg/kg i/p day 1-9, Day 12) was 95.4%, the “Av, Volume of ascitic fluid” value ([1]; 20 mg/kg i/p day 1-9, Day 12) was 0.7 mL and the “Av. No. of tumor cells” value ([1]; 20 mg/kg i/p day 1-9, Day 12) was 6.33 x 10^7. The “Av. Weight of ascitic fluid” value ([1]; 20 mg/kg i/p day 1-9, Day 12) was 0.46 g, the “% Tumor cell growth” value [1] was 4.6% and the Mortality [1] was 0/7. The “Day 13 Av. Tumor weights” value (Ehrlich Tumor (solid); 22 mg /Kg i/p day 1-9, Day 13) was 842.85 ± 129.92 mg, the “%Tumor Growth Inhibition” value (Ehrlich Tumor (solid); 22 mg /Kg i/p day 1-9, day 13) was 59.07% and the Mortality (Ehrlich Tumor (solid); 22 mg /Kg i/p day 1-9, dead/total animals) was 0/7. The inhibition at 20 µM (MCF-7 (Breast cancer); Concentration 20 µM) was 50%, the inhibition at 20 µM (THP-1 (Leukemia); Concentration 20 µM) was 90% and the inhibition at 20 µM (HCT-116 (Colon); Concentration 20 µM) was 88%. It also gave an inhibition at 20 µM (A549 (Lung); Concentration 20 µM) of 54%, an inhibition at 20 µM (T-47D (Breast cancer); Concentration 20 µM) of 60% and an inhibition at 20 µM (Hela (Cervix)) of 70%.
`COc1cc(C2c3c(cc(OC)c(OC)c3OC)C(=O)C2Cc2ccc(F)cc2)cc(OC)c1OC` (centres unmarked) [Compound 4, 2-(4"-fluorobenzyl)-3-(3',4',5'-trimethoxyphenyl)-4,5,6-trimethoxy-indan-1-one] gave an IC50 (MCF-7 (Breast cancer)) of 45 µM, an IC50 (THP-1 (Leukemia)) of 55 µM and an IC50 (HCT-116 (Colon)) of 22 µM. The IC50 (A549 (Lung)) was 24 µM and the IC50 (T-47D (Breast cancer)) was 36 µM.
